# According to patent publication US8618154B2, “LXR modulators” (Bristol-Myers Squibb Company, priority 2009, dated 2013):
# Tested on: ABCA1 gene expression
# Assay: Human whole blood assay (hWBA), ABCA1 mRNA induction
# Type: cell-based
# Details: Homo sapiens; full LXRα and LXRβ pan agonist used as reference; read-out: EC50 of reference compound
# Method: Human whole blood was collected in EDTA containing tubes and 0.5 mL aliquots were immediately mixed in a 96 well block with the appropriate serial dilution of test compound, in 0.5% DMSO. Compounds were incubated with blood at 37° C. with constant rocking for 4 hours. After incubation, cells were lysed in ABI Nucleic Acid Purification Lysis Solution (Applied Biosystems catalog #4305895) and frozen at −80° C. Following cell lysis, total RNA was purified using an ABI 6100 RNA prep station according to the protocol provided by the manufacturer. cDNAs were synthesized, and mRNAs were quantitated using SYBR-Green Quantitative PCR (Q-PCR) on an ABI Prism 7900HT Sequence Detection System and reagents from Quanta Bioscience Inc (Quanta Bioscience catalog #95047 and 95055).
# The quantity of each mRNA was determined by the ΔΔCT method (Michael W. Pfaffl. A new mathematical model for relative quantification in real-time RT-PCR. Nucleic Acids Research, 2001, Vol. 29, No. 9 e45) and normalized to the quantity of two control mRNAs, i.e. ribosomal protein L-30 (L-30) and beta-2-microglobulin (B2M). The induction of ABCA1 and ABCG1 by test compound was graphed as a percent of the reference compound, 2-(4-(5-(5-cyano-1-(2,4-difluorobenzyl)-6-oxo-4-(trifluoromethyl)-1,6-dihydropyridin-2-yl)thiophen-2-yl)-3-methylphenyl)acetic acid, and potency (EC50) and activity (% MAX) were calculated by fitting a sigmoidal response curve as a function of log transformed compound concentration using XLFit software according to the equation y=A+((B−A)/(1+((C/x)^D))).
smiles,measurement,value
"Cc1cc(CC(=O)O)ccc1-c1ccc(-c2cc(C(F)(F)F)c(C#N)c(=O)n2Cc2ccc(F)cc2F)s1 [2-(4-(5-(5-cyano-1-(2,4-difluorobenzyl)-6-oxo-4-(trifluoromethyl)-1,6-dihydropyridin-2-yl)thiophen-2-yl)-3-methylphenyl)acetic acid, reference compound]",EC50,1000 to 2000 nM
